# Source: ChEMBL document CHEMBL4043194, “Nrf2 activators from Glycyrrhiza inflata and their hepatoprotective activities against CCl4-induced liver injury in mice” (Bioorg Med Chem, 2017)
# What was measured:
# Type in all cases: cell-based
# [1] = target: T1, Nuclear factor erythroid 2-related factor 2 (Homo sapiens) (UniProt Q16236); assay: Activation of Nrf2 (unknown origin) expressed in human HepG2 cells at 10 uM incubated for 6 hrs by ARE-driven luciferase reporter gene assay relative to untreated control
# T1 sequence (whole entry): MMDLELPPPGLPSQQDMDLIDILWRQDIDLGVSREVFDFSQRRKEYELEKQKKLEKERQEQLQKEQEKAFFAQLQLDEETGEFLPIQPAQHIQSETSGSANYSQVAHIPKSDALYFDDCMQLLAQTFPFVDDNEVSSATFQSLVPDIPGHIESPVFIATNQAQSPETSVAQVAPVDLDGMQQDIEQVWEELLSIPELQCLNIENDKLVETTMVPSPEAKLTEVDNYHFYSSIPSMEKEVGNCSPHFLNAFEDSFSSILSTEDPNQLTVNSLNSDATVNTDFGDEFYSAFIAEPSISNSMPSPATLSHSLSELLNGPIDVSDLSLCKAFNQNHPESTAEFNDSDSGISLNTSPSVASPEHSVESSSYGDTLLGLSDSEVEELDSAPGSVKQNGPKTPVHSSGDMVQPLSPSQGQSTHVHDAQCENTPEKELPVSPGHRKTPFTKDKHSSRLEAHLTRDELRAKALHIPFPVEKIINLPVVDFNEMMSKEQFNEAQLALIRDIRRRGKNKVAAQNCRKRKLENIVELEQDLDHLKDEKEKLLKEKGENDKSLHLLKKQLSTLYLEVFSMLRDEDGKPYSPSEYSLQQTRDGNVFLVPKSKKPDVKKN
# [2] = target: T1, Nuclear factor erythroid 2-related factor 2 (Homo sapiens); assay: Activation of Nrf2 (unknown origin) expressed in human HepG2 cells at 2.5 to 10 uM incubated for 6 hrs by ARE-driven luciferase reporter gene assay
# [3] = system: HepG2; assay: Cytotoxicity in human HepG2 cells expressing Nrf2/ARE-driven luciferase at 10 to 40 uM incubated for 6 hrs; settings: hepg2, 6 h
# [4] = target: T1, Nuclear factor erythroid 2-related factor 2 (Homo sapiens); assay: Activation of Nrf2 (unknown origin) expressed in human HepG2 cells at 2.5 to 20 uM incubated for 6 hrs by ARE-driven luciferase reporter gene assay
# [5] = system: HepG2; assay: Cytotoxicity in human HepG2 cells expressing Nrf2/ARE-driven luciferase at 20 to 40 uM incubated for 6 hrs; settings: hepg2, 6 h
SMILES,fold change (FC) [1],other results
O=c1c(-c2ccc(O)cc2)coc2cc(O)cc(O)c12,1.2,
CC(C)=CCc1cc2c(=O)cc(-c3ccc(O)cc3)oc2cc1O,1.05,
CC(C)=CCc1c(O)cc2occ(-c3cc(O)c4c(c3)C=CC(C)(C)O4)c(=O)c2c1O,1.51,
CC(C)=CCc1c(O)ccc(C(=O)/C=C/c2ccc(O)cc2)c1O,1.91,
C=CC(C)(C)c1cc(/C=C/C(=O)c2ccc(O)c(O)c2)c(OC)cc1O,5.98,Activity [2]: Dose-dependent effect; Activity [3]: Toxic
COc1cc(O)c(-c2coc3cc(O)ccc3c2=O)c(OC)c1CC=C(C)C,1.87,
O=C(/C=C/c1ccc(O)cc1)c1ccc(O)cc1O,4.67,
C=C(C)[C@H](C)c1cc(/C=C/C(=O)c2ccc(O)cc2)c(OC)cc1O [LICOCHALCONE E],5.94,Activity [2]: Dose-dependent effect; Activity [3]: Toxic
CC(C)=CCc1c(O)ccc(-c2coc3cc(O)ccc3c2=O)c1O,2.15,
CC(C)=CCc1c(O)c(CC=C(C)C)c2oc(-c3ccc(O)cc3)cc(=O)c2c1O,1.46,
CC(C)=CCc1c(O)cc(O)c2c(=O)c(-c3ccc4c(c3O)C=CC(C)(C)O4)coc12,1.56,
CC(C)=CCc1c(O)cc(O)c2c1OC[C@@H](c1ccc3c(c1O)C=CC(C)(C)O3)C2=O,1.88,
CC(C)=CCc1cc2c(=O)cc(-c3ccc4c(c3)C=CC(C)(C)O4)oc2cc1O,1.03,
CC(C)=CCc1cc(/C=C/C(=O)c2ccc(O)c(CC=C(C)C)c2O)ccc1O,1.22,
CC1(C)C(=O)CC[C@]2(C)[C@H]3C(=O)C=C4[C@@H]5C[C@@](C)(C(=O)O)CC[C@]5(C)CC[C@@]4(C)[C@]3(C)[C@@H](O)C[C@@H]12,1.18,
O=C1c2ccc(O)cc2OCC1c1ccc(O)c(O)c1 (centres undefined),2.12,
CC(C)=CCc1c(O)ccc2c1O[C@H](c1ccc3c(c1)C=CC(C)(C)O3)CC2=O,1.4,
CC1(C)C=Cc2c(ccc(-c3coc4cc(O)ccc4c3=O)c2O)O1,1.4,
COc1ccc(C2COc3c(cc(CC=C(C)C)c(O)c3O)C2=O)cc1 (centres undefined),1.06,
C=CC(C)(C)c1cc(/C=C/C(=O)c2ccc(O)cc2)c(OC)c(O)c1O,3.09,Activity [4]: Dose-dependent effect; Activity [5]: Toxic
CC1(CO)C=Cc2c(ccc(-c3coc4cc(O)ccc4c3=O)c2O)O1 (centres undefined),2.76,
COc1ccc(-c2coc3cc(O)ccc3c2=O)cc1,2.65,
CC(C)=CCc1c(O)cc2occ(-c3ccc4c(c3O)C=CC(C)(C)O4)c(=O)c2c1O,1.37,
CC(C)=CCc1c(O)ccc2c1oc1c3ccc(O)cc3oc(=O)c21,1.81,

SMILES,fold change (FC) [1],other results
CC(C)=CCc1c(O)ccc(-c2coc3cc(O)c(CC=C(C)C)c(O)c3c2=O)c1O,1.05,
CC1(C)C=Cc2c(ccc3c2OC[C@@H](c2ccc(O)cc2O)C3)O1,2.58,
CC(C)=CCc1c(O)ccc([C@H]2COc3cc(O)c(CC=C(C)C)c(O)c3C2=O)c1O,1.98,
CC1(C)C=Cc2c(ccc(-c3cc4ccc(O)cc4o3)c2O)O1,1.08,
CC(C)=CCc1cc(C2CC(=O)c3ccc(O)c(CC=C(C)C)c3O2)ccc1O (centres undefined),1.21,
COc1ccc(-c2coc3c(O)c(O)c(CC=C(C)C)cc3c2=O)c(O)c1,1.42,
CC1(C)C=Cc2cc(-c3coc4cc(O)cc(O)c4c3=O)cc(O)c2O1,1.13,
COc1ccc2c(c1)OC[C@H]1c3ccc(O)cc3O[C@@H]21,1.23,
CC(C)=CCc1cc([C@@H]2CC(=O)c3cc(CC=C(C)C)c(O)cc3O2)ccc1O,1.59,
O=c1cc(-c2ccc(O)cc2)oc2cc(O)ccc12,1.23,
O=C1C[C@@H](c2ccc(O)cc2)Oc2cc(O)ccc21,1.97,
COC(C)(C)c1cc2cc3c(=O)cc(-c4ccc(O)c(CC=C(C)C)c4)oc3cc2o1,1.54,
CC(C)=CCc1cc([C@@H]2CC(=O)c3ccc(O)cc3O2)cc2c1OC(C)(C)C=C2,1.84,
COc1cc(-c2coc3cc(O)ccc3c2=O)ccc1O,1.12,
COc1c(/C=C/C(=O)c2ccc(O)c(CC=C(C)C)c2)ccc(O)c1O [LICOCHALCONE D],4.53,Activity [4]: Dose-dependent effect; Activity [5]: Toxic
O=C(/C=C/c1ccc(O)c(O)c1)c1ccc(O)c(O)c1,1.85,
CC1(C)C=Cc2c(ccc3c(=O)c(-c4ccc(O)cc4O)coc23)O1,1.76,
CC1(C)C=Cc2cc(-c3coc4cc(O)cc(O)c4c3=O)ccc2O1,0.76,
CC(C)=CCc1cc([C@@H]2CC(=O)c3ccc(O)cc3O2)ccc1O,2.2,
CC1(C)[C@@H](O)CC[C@]2(C)[C@H]3CC=C4[C@@H]5C[C@@](C)(C(=O)O)CC[C@]5(C)CC[C@@]4(C)[C@]3(C)CC[C@@H]12,1.43,
COc1c(/C=C/C(=O)c2ccc(O)cc2)ccc(O)c1CC=C(C)C,1.42,
CC1(C)C=Cc2cc(-c3coc4cc(O)ccc4c3=O)c(O)cc2O1,2.3,
COc1c(/C=C/C(=O)c2ccc(O)c(O)c2)ccc(O)c1CC=C(C)C,2.07,
CC(C)=CCc1c(O)cc2occ(-c3ccc4c(c3)C=CC(C)(C)O4)c(=O)c2c1O,1.34,

SMILES,fold change (FC) [1],other results
CC1(C)C=Cc2c(O)ccc(C3COc4cc(O)cc(O)c4C3=O)c2O1 (centres undefined),1.42,
CC(C)=CCc1cc([C@@H]2CC(=O)c3c(O)cc(O)c(CC=C(C)C)c3O2)ccc1O,1.41,
CC(C)=CCc1cc(-c2coc3c(CC=C(C)C)c(O)cc(O)c3c2=O)cc(O)c1O,1.2,
COc1cc2occ(-c3ccc(O)cc3O)c(=O)c2c(O)c1CC=C(C)C,2.36,
CC1(C)C=Cc2c(cc3occ(-c4ccc(O)cc4)c(=O)c3c2O)O1,2.17,
O=C1c2c(O)cc(O)cc2OCC1c1ccc(O)cc1 (centres undefined),1.72,
CC(C)=CCc1c(O)ccc(-c2cc3ccc(O)cc3o2)c1O [2'-O-DEMETHYLBIDWILLOL B],4.34,Activity [4]: Dose-dependent effect; Activity [5]: Toxic
CC(C)=CCc1c(O)c(CC=C(C)C)c2occ(-c3ccc(O)cc3)c(=O)c2c1O,1.21,
CC(C)=CCc1cc(-c2cc(=O)c3c(O)c(CC=C(C)C)c(O)cc3o2)ccc1O,2.98,
COc1ccc(-c2coc3cc(O)ccc3c2=O)c(O)c1,2.28,
CC1(C)C=Cc2c(ccc(-c3coc4cc(O)cc(O)c4c3=O)c2O)O1,1.47,
CC1(C)C=Cc2cc(/C=C/C(=O)c3ccc(O)cc3O)ccc2O1,2.37,
CC(C)=CCc1cc(/C=C/C(=O)c2ccc(O)cc2O)ccc1O,1.87,
COc1c(/C=C/C(=O)c2ccc(O)cc2)cc(CC=C(C)C)c(O)c1O,3.39,Activity [2]: Dose-dependent effect; Activity [3]: Toxic
O=C1C[C@@H](c2cc(O)cc(O)c2)Oc2cc(O)ccc21,1.54,
CC(C)=CCc1c(O)cc2occ(-c3ccc(O)cc3)c(=O)c2c1O,1.49,
CC(C)=CCc1c(O)cc(O)c2c(=O)c(-c3ccc(O)cc3O)coc12,1.78,
CC(C)=CCc1cc(-c2coc3cc(O)cc(O)c3c2=O)cc(O)c1O,1.91,
CC(C)=CCc1c(O)cc2c(c1O)C(=O)[C@H](c1ccc3c(c1O)C=CC(C)(C)O3)CO2,2.33,
CC(C)=CCc1c(O)ccc(-c2coc3cc(O)cc(O)c3c2=O)c1O,2.49,
CC(C)=CCc1c(O)ccc(-c2coc3c(CC=C(C)C)c(O)cc(O)c3c2=O)c1O,1.98,
CC(C)=CCc1c(O)ccc(C(=O)/C=C/c2ccc(O)c(O)c2)c1O,1.56,
CC1(C)C=Cc2c(O)ccc(-c3coc4cc(O)cc(O)c4c3=O)c2O1,1.7,
CC(C)=CCc1cc(-c2cc(=O)c3cc4c(cc3o2)OC(C)(C)C=C4)ccc1O,1.73,
